In US11130769B2 (Prelude Therapeutics Incorporated, priority 2018, dated 2021):

Key:
MCL-1 = MCL-1 (Homo sapiens (Human), UniProt Q07820); assay: Cell free Mcl-1:Bim affinity assay (fluorescence polarization competition); format: binding; conditions: 15 nM MCL-1, 5 nM FITC-Bim, 1 hour at room temperature; class symbols; read-out: BIM_Ki
Procedure, shortened: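 Compounds competed with FITC-labelled Bim peptide (5 nM) for MCL-1 (15 nM) in HEPES/NaCl buffer with 1% DMSO, 1 h at room temperature. Fluorescence polarization (535 nm emission) gave % inhibition versus DMSO and positive controls; IC50 from 10-point curves, converted to Ki by the Nikolovska-Coleska equation.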

H929 cells = assay: Cell viability assay (H929 10 FBS); format: cell-based; conditions: Homo sapiens, NCI-H929, 24 hours, read-out: H929_10FBS IC50
Procedure, shortened: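 H929 cells, 4000/well, in RPMI 1640 with 10% FBS, sodium pyruvate, HEPES and glucose were exposed to compound 24 h at 37 °C. Viability read as luminescence after 30-60 min at RT with CellTiter-Glo or ATPlite 1 Step.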

Chain of MCL-1 (Q07820 whole entry): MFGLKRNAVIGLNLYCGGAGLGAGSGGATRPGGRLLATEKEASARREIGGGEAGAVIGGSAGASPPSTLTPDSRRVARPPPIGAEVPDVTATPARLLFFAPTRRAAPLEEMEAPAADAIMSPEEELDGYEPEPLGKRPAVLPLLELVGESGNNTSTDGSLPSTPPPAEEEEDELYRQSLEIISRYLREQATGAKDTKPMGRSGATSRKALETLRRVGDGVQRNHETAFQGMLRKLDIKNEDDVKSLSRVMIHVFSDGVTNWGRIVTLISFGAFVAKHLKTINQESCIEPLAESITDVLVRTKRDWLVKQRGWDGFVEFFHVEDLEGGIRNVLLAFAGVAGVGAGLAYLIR

Ki (MCL-1) [nM] | IC50 (H929 cells) [nM] | SMILES
< 1 | < 1000 | CC1(C)OC/C=C/[C@H](OCC(=O)N2C[C@@H](F)[C@@H](F)C2)[C@@H]2CC[C@H]2CN2C[C@@]3(CCCc4cc(Cl)ccc43)COc3ccc(cc32)S(=O)(=O)NC1=O [Example 291, (3R,6R,7S,8E,22S)-6′-Chloro-7-[2-[(3R,4S)-3,4-difluoropyrrolidin-1-yl]-2-oxo-ethoxy]-12,12-dimethyl-15,15-dioxo-spiro[11,20-dioxa-15λ6-thia-1,14-diazatetracyclo[14.7.2.03,6.019,24]pentacosa-8,16,18,24-tetraene-22,1′-tetralin]-13-one]
< 1 | < 500 | CC1/C=C/[C@H](OC(=O)N(C)C)[C@@H]2CC[C@H]2CN2C[C@@]3(CCCc4cc(Cl)ccc43)COc3ccc(cc32)S(=O)(=O)NC(=O)C(C)(C)O1 (stereo partly drawn) [Example 292, [(3R,6R,7S,8E,22S)-6′-Chloro-10,12,12-trimethyl-13,15,15-trioxo-spiro[11,20-dioxa-15-thia-1,14-diazatetracyclo[14.7.2.03,6.019,24]pentacosa-8,16,18,24-tetraene-22,1′-tetralin]-7-yl] N,N-dimethylcarbamate]
< 1 | < 500 | CN(C)C(=O)O[C@@]1(C)/C=C/COC(C)(C)C(=O)NS(=O)(=O)c2ccc3c(c2)N(C[C@@H]2CC[C@H]21)C[C@@]1(CCCc2cc(Cl)ccc21)CO3 [Example 293, [(3R,6R,7S,8E,22S)-6′-chloro-7,12,12-trimethyl-13,15,15-trioxo-spiro[11,20-dioxa-15-thia-1,14-diazatetracyclo[14.7.2.03,6.019,24]pentacosa-8,16,18,24-tetraene-22,1′-tetralin]-7-yl] N,N-dimethylcarbamate]
1 to 100 | < 500 | CN(C)C(=O)O[C@H]1/C=C/CN2CCC[C@H]2C(=O)NS(=O)(=O)c2ccc3c(c2)N(C[C@@H]2CC[C@H]21)C[C@@]1(CCCc2cc(Cl)ccc21)CO3 [Example 294, [(3R,6R,7S,8E,15S,25S)-6′-Chloro-16,18,18-trioxo-spiro[23-oxa-18-thia-1,11,17-triazapentacyclo[17.7.2.03,6.011,15.022,27]octacosa-8,19,21,27-tetraene-25,1′-tetralin]-7-yl] N,N-dimethylcarbamate]
1 to 100 | > 1000 | CN1C/C=C/[C@H](OC(=O)N[C@H]2CCOC2)[C@@H]2CC[C@H]2CN2C[C@@]3(CCCc4cc(Cl)ccc43)COc3ccc(cc32)S(=O)(=O)NC(=O)C12CCC2 [Example 295, [(3R,6R,7S,8E,22S)-6′-Chloro-11-methyl-12,12-(1,3-propylene)-13,15,15-trioxo-spiro[20-oxa-15-thia-1,11,14-triazatetracyclo[14.7.2.03,6.019,24]pentacosa-8,16,18,24-tetraene-22,1′-tetralin]-7-yl] N-[(3S)-tetrahydrofuran-3-yl]carbamate]
1 to 100 | < 500 | O=C1Cn2ccc(n2)CC(=O)N2CCC(C2)CN2C[C@@]3(CCCc4cc(Cl)ccc43)COc3ccc(cc32)S(=O)(=O)N1 (stereo partly drawn) [Example 296, (23S)-6′-Chloro-16,16-dioxo-spiro[21-oxa-16-thia-1,6,12,15,27-pentazapentacyclo[15.7.2.13,6.19,12.020,25]octacosa-9(27),10,17,19,25-pentaene-23,1′-tetralin]-7,14-dione]
1 to 100 | > 1000 | O=C1Cc2ccn(n2)CC(=O)N2CCC(C2)CN2C[C@@]3(CCCc4cc(Cl)ccc43)COc3ccc(cc32)S(=O)(=O)N1 (stereo partly drawn) [Example 297, (23S)-6′-Chloro-16,16-dioxo-spiro[21-oxa-thia-1,6,9,15,27-pentazapentacyclo[15.7.2.13,6.19,12.020,25]octacosa-10,12(27),17,19,25-pentaene-23,1′-tetralin]-7,14-dione]
< 1 | < 1000 | CN(C(=O)O[C@H]1/C=C/COC(C)(C)C(=O)NS(=O)(=O)c2ccc3c(c2)N(C[C@@H]2CC[C@H]21)C[C@]1(CO3)OCCc2cc(Cl)ccc21)C1COC1 [Example 298, [(3R,6R,7S,8E,22R)-6′-Chloro-12,12-dimethyl-13,15,15-trioxo-spiro[11,20-dioxa-15-thia-1,14-diazatetracyclo[14.7.2.03,6.019,24]pentacosa-8,16,18,24-tetraene-22,1′-isochromane]-7-yl] N-methyl-N-(oxetan-3-yl)carbamate]
< 1 | < 1000 | CN(C(=O)O[C@H]1/C=C/COC(C)(C)C(=O)NS(=O)(=O)c2ccc3c(c2)N(C[C@@H]2CC[C@H]21)C[C@]1(CO3)OCCc2cc(Cl)ccc21)[C@@H]1CCOC1 [Example 299, [(3R,6R,7S,8E,22R)-6′-Chloro-12,12-dimethyl-13,15,15-trioxo-spiro[11,20-dioxa-15-thia-1,14-diazatetracyclo[14.7.2.03,6.019,24]pentacosa-8,16,18,24-tetraene-22,1′-isochromane]-7-yl] N-methyl-N-[(3R)-tetrahydrofuran-3-yl]carbamate]
< 1 | < 1000 | CN(C(=O)O[C@H]1/C=C/COC(C)(C)C(=O)NS(=O)(=O)c2ccc3c(c2)N(C[C@@H]2CC[C@H]21)C[C@]1(CO3)OCCc2cc(Cl)ccc21)C1CCOCC1 [Example 300, [(3R,6R,7S,8E,22R)-6′-Chloro-12,12-dimethyl-13,15,15-trio-spiro[11,20-dioxa-15-thia-1,14-diazatetracyclo[14.7.2.03,6.019,24]pentacosa-8,16,18,24-tetraene-22,1′-isochromane]-7-yl] N-methyl-N-tetrahydropyran-4-yl-carbamate]
< 1 | < 500 | CN(C(=O)O[C@H]1/C=C/COC(C)(C)C(=O)NS(=O)(=O)c2ccc3c(c2)N(C[C@@H]2CC[C@H]21)C[C@@]1(CCOc2cc(Cl)ccc21)CO3)[C@@H]1CCOC1 [Example 301, [(3R,6R,7S,8E,22S)-7′-Chloro-12,12-dimethyl-13,15,15-trioxo-spiro[11,20-dioxa-15-thia-1,14-diazatetracyclo[14.7.2.03,6.019,24]pentacosa-8,16,18,24-tetraene-22,4′-chromane]-7-yl] N-methyl-N-[(3R)-tetrahydrofuran-3-yl]carbamate]
< 1 | < 500 | CC1(C)OC/C=C/[C@H](OC(=O)N[C@@H]2CCOC2)[C@@H]2CC[C@H]2CN2C[C@@]3(CCOc4cc(Cl)ccc43)COc3ccc(cc32)S(=O)(=O)NC1=O [Example 302, [(3R,6R,7S,8E,22S)-7′-Chloro-12,12-dimethyl-13,15,15-trioxo-spiro[11,20-dioxa-15-dioxa-15-thia-1,14-diazatetracyclo[14.7.2.03,6.019,24]pentacosa-8,16,18,24-tetraene-22,4′-chromane]-7-yl] N-[(3R)-tetrahydrofuran-3-yl]carbamate]
< 1 | < 500 | CN(C(=O)O[C@H]1/C=C/COC(C)(C)C(=O)NS(=O)(=O)c2ccc3c(c2)N(C[C@@H]2CC[C@H]21)C[C@@]1(CCOc2cc(Cl)ccc21)CO3)C1COC1 [Example 303, [(3R,6R,7S,8E,22S)-7′-Chloro-12,12-dimethyl-13,15,15-trioxo-spiro[11,20-dioxa-15-thia-1,14-diazatetracyclo[14.7.2.03,6.019,24]pentacosa-8,16,18,24-tetraene-22,4′-chromane]-7-yl] N-methyl-N-(oxetan-3-yl)carbamate]
